# According to patent publication US20250134903A1, “COMPOSITIONS AND METHODS FOR TREATING PAIN” (priority 2023, published 2025):
# “Also recorded” adds a separate entry of the source.
# Assays:
# TN [1] = conditions: 23 patients; add-on therapy; cited from earlier work
# TN [2] = conditions: 10 patients with TN; cited from earlier work
# histamine H1-receptor = histamine H1-receptor (Homo sapiens, UniProt P35367); conditions: more potent; cited from earlier work
# PHN symptoms = conditions: human, in vivo; cited from earlier work
# mu-opioid receptors = mu-opioid receptors (Homo sapiens, UniProt P35372); conditions: cited from earlier work
# Sequence of mu-opioid receptors (P35372 whole entry): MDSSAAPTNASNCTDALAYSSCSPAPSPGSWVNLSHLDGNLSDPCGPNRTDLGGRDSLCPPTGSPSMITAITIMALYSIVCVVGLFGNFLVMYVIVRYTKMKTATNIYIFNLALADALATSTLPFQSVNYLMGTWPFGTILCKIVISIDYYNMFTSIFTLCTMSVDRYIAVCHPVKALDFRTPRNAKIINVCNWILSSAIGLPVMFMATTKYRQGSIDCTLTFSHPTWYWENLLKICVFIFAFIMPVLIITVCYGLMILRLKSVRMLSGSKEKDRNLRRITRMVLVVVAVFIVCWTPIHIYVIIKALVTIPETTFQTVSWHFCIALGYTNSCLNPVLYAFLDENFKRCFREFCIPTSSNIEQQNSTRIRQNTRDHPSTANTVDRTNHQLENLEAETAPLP
# [3] = system: post-herpetic neuralgia (PHN) pain; assay: Applicant's clinical observations of Trimeprazine tartrate in post-herpetic neuralgia; format: in vivo, human; conditions: not a randomized clinical trial
# From the text: While the clinical observations are not from a randomized clinical trial and could be subject to placebo effects and other confounders, they offer a promising finding for this devastating facial pain condition.
# [4] = system: patients suffering from trigeminal neuralgia (TN); assay: Non-randomized clinical observations of Trimeprazine in patients (n=7) with trigeminal neuralgia; format: in vivo, human; conditions: for overall efficacy on TN pain: seven TN patients, non-randomized
# From the text: A middle-aged patient suffers from classic trigeminal (Type 1) neuralgia presenting with sharp, lancinating, severe pain in their left face precipitated by showering, eating, facial animation, touch of their facial skin and nose, and brushing their teeth. The episodes of pain are initiated by the stimuli above and immediately stop all other activity until they subside in several seconds. Their behavior is modified to avoid the stimuli above, even affecting how they speak and eats. […] Their daily activities are dominated by fear of inducing another attack.
# The patient began treatment with Trimeprazine 5 mg morning and evening.
# The disease had caused cutaneous anesthesia in the right forehead and cheek. […] Beginning at about 19 years after the bout of Lyme disease they noted sharp lightning-like pains in their right cheek. Brief and usually during cutaneous stimulation, like being in a shower. There were perhaps one or two of these occurrences per year. At 22 years after the initial Lyme disease, they experienced a severe attack of Trigeminal Neuralgia (TN) affecting their right cheek (Type 1). There were on average 8 bouts of severe stabbing pain per day precipitated by facial animation, touching, opening their mouth to eat, brushing their teeth, and even a gust of cold wind. They treated themself with doxycycline, fearing a reactivation of Lyme disease.
# They were quite miserable, being unable to even brush their teeth without precipitating a severe bout of pain.
# Patient is a person who suffers from TN which began 3 years ago after a dental procedure. The TN was manifest by sharp, lancinating pain in the left side of their jaw (Type. 1). These periods of pain were episodic, precipitated by stimuli like brushing their teeth, at least once per day, with periods of vulnerability lasting 3-4 weeks each occurring 3-4 times per year. Their parent had suffered with the same pattern of TN. When started on Trimeprazine they were also taking Pregabalin.
# Patient is a young person who developed severe ophthalmic herpes zoster involving the right side of their face and their right eye. They had extensive ocular involvement requiring medications for a full year. Their corneal difficulties were accompanied by a severe lingering neuralgia in the affected ophthalmic distribution of the trigeminal nerve (Type 2), which plagued their every waking hour. They were on 12 medications including carbamazepine 200 mg BID and pregabalin 150 mg TID, ophthalmic medications, and oxycodone as needed for pain relief.
# This patient suffered from shingles on their forehead which was followed by lingering neuralgia in the affected ophthalmic distribution of the trigeminal nerve.
# [5] = 5% lidocaine plaster applied to skin; cited from earlier work
# classic TN = conditions: 100-400 mg/d; 8 patients with classic TN; cited from earlier work
# PHN = conditions: in vivo; cited from earlier work
# [6] = cited from earlier work
# [7] = Example 5, four months or so after
# Sequence of histamine H1-receptor (P35367 whole entry, species assumed): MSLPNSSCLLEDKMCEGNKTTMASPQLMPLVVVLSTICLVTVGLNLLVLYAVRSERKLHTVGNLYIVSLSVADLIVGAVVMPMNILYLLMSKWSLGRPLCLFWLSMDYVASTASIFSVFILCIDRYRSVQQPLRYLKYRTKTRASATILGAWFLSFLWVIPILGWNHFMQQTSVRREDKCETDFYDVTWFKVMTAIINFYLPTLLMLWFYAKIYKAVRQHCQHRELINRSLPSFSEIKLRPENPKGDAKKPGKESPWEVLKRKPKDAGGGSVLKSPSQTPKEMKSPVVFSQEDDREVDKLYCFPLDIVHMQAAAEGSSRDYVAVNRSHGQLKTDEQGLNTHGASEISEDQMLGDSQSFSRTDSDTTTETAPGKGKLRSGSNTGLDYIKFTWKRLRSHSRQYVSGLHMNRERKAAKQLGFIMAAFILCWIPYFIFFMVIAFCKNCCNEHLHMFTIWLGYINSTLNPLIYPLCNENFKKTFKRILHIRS
molecule,measurement,setting,value
CC[C@@H](C(N)=O)N1CCCC1=O [levetiracetam],reduction in number of daily attacks,TN [1],62%
same,improvement,TN [2],50-90%
Cc1ccc(/C(=C\CN2CCCC2)c2ccccn2)cc1 [E-triprolidine],potency relative to Z-triprolidine,histamine H1-receptor,1000 fold
Botulinum Toxin A [BTX-A],cases in which effective in reducing pain,PHN symptoms,31%
same,cases with significant outcomes,PHN symptoms,46.6%
same,side effects,PHN symptoms,mild
CC[C@@H](c1cccc(O)c1)[C@@H](C)CN(C)C [Tapentadol],times less potent than morphine in binding mu-opioid receptors,mu-opioid receptors,18 times
Trimeprazine tartrate,effectiveness on PHN pain,[3],effectiveness in alleviating pain
same,overall efficacy on TN pain,[4],effectiveness in alleviating pain
CCN(CC)CC(=O)Nc1c(C)cccc1C [Lidocaine],fraction of the drug reaching the systemic circulation,[5],3%
CC1(C)O[C@@H]2[C@@H](CO[C@@]3(COS(N)(=O)=O)OC(C)(C)O[C@@H]23)O1 [Topiramate],patients in whom found effective,classic TN,75%
CC(C)C[C@H](CN)CC(=O)O [pregabalin],analgesic property relative to gabapentin,PHN,6 times
CC(CN(C)C)CN1c2ccccc2Sc2ccccc21 (stereo not shown) [Trimeprazine],pain,"[4]; Example 1, TN Type 1, 5 mg morning and evening, after four days of medication",all pain was gone
same,intensity and frequency of the attacks,"[4]; Example 1, middle-aged male, TN Type 1, 5 mg morning and evening, second day of the course",in decline
same,side-effects,"[4]; Example 1, 5 mg",no side-effects other than drowsiness
same,later discomfort in face,"[4]; Example 1, ½ to 1 pill of 5 mg once or twice a day",successfully alleviated
same,recurring sharp pains,"[4]; Example 2, person, TN Type 1, recurrences at seven and eleven months after the TN attack, 5 mg twice a day",immediately stop all recurring pains
same,recurrent attacks of TN,"[4]; Example 2, in the 12 months since the last treatment",no recurrent attacks of TN
same,pain,"[4]; Example 3, elderly male, TN Type 1 uncontrolled with carbamazepine and gabapentin, 5 mg twice a day, by ten days after starting treatment",essentially pain free
same,duration of relief,"[4]; Example 3, 5 mg twice a day",enduring
same,tolerability,"[4]; Example 3, 5 mg twice a day","except for some drowsiness, tolerated the medicine well"
same,jaw pain,"[4]; Example 4, person, TN Type 1, also taking Pregabalin, after a first course of 10 days, 5 mg BID",jaw pain was gone
same,sensitive area on the side of head above ear,"[4]; Example 4, second course 5 mg BID for several days",disappeared entirely
same,improvement of neuralgia,"[4]; Example 5, young person, TN Type 2 after ophthalmic herpes zoster, by 5 days after starting the medication",some improvement
same,average pain (patient-reported),[4]; [7],2
same,max pain (patient-reported),[4]; [7],5
same,patient-reported relief of head pain,"[4]; Example 6, TN Type 2 after shingles, 5 mg BID, by 6 days after starting",it does help my head
same,Clinical Outcome,"[4]; Patient 1, TN Type 1","Relief, no additional"
same,Comment,"[4]; Patient 1, TN Type 1",Pain gone day 3
same,Clinical Outcome,"[4]; Patient 2, TN Type 1","Relief, no additional"
same,Comment,"[4]; Patient 2, TN Type 1",3 subsequent attacks
same,Clinical Outcome,"[4]; Patient 3, TN Type 1","Relief, no additional"
same,Comment,"[4]; Patient 3, TN Type 1",“So nice to be pain
same,Clinical Outcome,"[4]; Patient 4, TN Type 1","Relief, no additional"
same,Comment,"[4]; Patient 4, TN Type 1",Facial pain gone
same,Comment,"[4]; Patient 5, TN Type 2",Better and continuing
same,Clinical Outcome,"[4]; Patient 6, TN Type 2","Better, can travel"
same,Clinical Outcome,"[4]; Patient 7, TN Type 2","Better, no additional"
same,Comment,"[4]; Patient 7, TN Type 2",“No bother now”
same,overall efficacy on TN pain,[4],demonstrated efficacy; also recorded: significant pain relief
same,overall efficacy on TN pain,[4]; listed as trimeprazine,reduced or relieved
same,"patients with long-term pain relief, no recurrence of symptoms for over 12 months",[4]; subset of TN patients treated with Trimeprazine,two out of seven
same,LogP,[6],4.71
